Source: patent publication US6878690B2, “Compounds and methods” (PharmAxis Pty Ltd., priority 2000, dated 2005)
Several values for one entry are separate records, joined by “and”; a condition that tells them apart may be missing. Equal entries are not always repeated.

Experiments:
[1] = system: passively transferred EAE; assay: Passively transferred EAE induced with encephalitogenic MBP-specific T cell line (Example 23); format: in vivo, Lewis rats
Experimental: In order to study the effect of the agents of the present invention in vivo on a disease caused by T lymphocyte migration into a specific tissue, experiments were performed in the Lewis rat model of passively transferred EAE. Here, myelin basic protein (MBP)-specific T lymphocyte cell lines were generated from the draining lymph nodes of Lewis rats that had been immunised with MBP in Freund's complete adjuvant essentially according to the method of Ben-Nun et al. (1981) as described in Example 8. Thus, in this manner, donor T lymphocytes were generated from female 10 to 12 week old Lewis rats weighing 150 to 200 g. These rats were injected intradermally in a footpad of each hind foot with an emulsion of Guinea pig myelin basic protein (MBP; prepared according to the method of Deibler et al., 1972; incorporated herein by reference) in Freund's complete adjuvant (0.05 ml). The adjuvant emulsion was prepared by emulsifying equal volumes of a mixture of light mineral oil (Sigma) and normal saline containing Guinea pig myelin basic protein (0.5 mg/ml) and Mycobacterium butyricum (4 mg/ml; Difco). Thus, the total dose per rat was 50 micrograms of MBP and 400 micrograms of M. butyricum. Approximately 11 days following injection, the rats were euthanased and the draining lymph nodes (popliteal and inguinal) removed aseptically by blunt dissection and placed into mixed lymphocyte culture medium. This medium was prepared in the normal fashion from Dulbecco's Modified Eagle's Medium (DMEM; GIBCO, Grand Island, N.Y.) supplemented with glucose, folic acid, L-asparagine, sodium bicarbonate, L-glutamine, sodium pyruvate, HEPES, 2-mercaptoethanol (5×10^−5 M), penicillin, streptomycin, neomycin, and 2% fetal calf serum. A single cell suspension was prepared from the lymph nodes in the usual manner by gently pushing the nodes through a stainless steel screen. The cells were washed twice in the culture medium and following this procedure, any red blood cells were lysed in the usual manner by treating with a solution of ammonium chloride, EDTA and sodium hydrogen carbonate (pH 7.3) and the preparation strained (Falcon 2350 cell strainer). The cells were washed again in the lymphocyte culture medium. All cell preparative steps were performed on ice. These cells were cultured asceptically for 72 hours at 37° C. in a humidified atmosphere containing 7.5% carbon dioxide at a concentration of 5 million cells per milliliter in the presence of MBP (0.06 mg/ml). The cells were collected and the lymphoblasts were isolated by centrifugation on a Ficoll (Pharmacia, Uppsala, Sweden) gradient in an identical manner to that described by Ben Nun et al. (1981). The fraction containing ≧90% lymphoblasts was cultured and propagated in Eagle's medium supplemented with 15% of a concanavalin A-stimulated lymphocyte supernatant to provide growth factors, 10% fetal calf serum, nonessential amino acids (Bio-Lab, Jerusalem, Israel); sodium pyruvate, 2-mercapto ethanol and antibiotics without added antigen. The cells were plated in 100 mm petri dishes at a concentration of 0.2 million cells/ml and replated every 3 or 4 days. Prior to transfer into Lewis recipients, the cells were restimulated in the presence of MBP (0.01 mg/ml) and irradiated syngeneic thymocytes for 4 days.
These cells were highly encephalitogenic sine as few as 500,000 cells were capable of inducing disease when injected into naïve Lewis rats. Thus, in a typical experiment a group of 5 female Lewis rats, approximately 9 weeks old, weighing 110±15 grams were anesthetised with diethyl ether and implanted with mini-osmotic pumps (Alzet 2002, Alza Corp., Palo Alto Calif., USA) containing phosphoric acid mono-(6-propyl-3,4,5-trihydroxy-tetrahydro-pyran-2-ylmethyl) ester mono sodium salt dissolved in normal saline at a concentration that delivered the drug at a rate of 45 mg/kg/rat/day. […]

[2] = system: DTH response to 2,4-dinitrofluorobenzene (DNFB); assay: Delayed-type hypersensitivity (DTH) response to DNFB, ear swelling; format: in vivo, Balb/C mice
Text: In the present Example, a murine model of Type IV hypersensitivity or delayed-type hypersensitivity (DTH) response to cutaneous contact with the chemical hapten 2,4-dinitrofluorobenzene (DNFB) (Aldrich Chemical Company Inc, USA) was used as a model to measure the anti-inflammatory effects of compounds of the present invention. Specific pathogen-free 8-12 week old female Balb/C mice, weighing 19-21 g, were sensitised in a similar manner to that described by Klimuk et al., (Klimuk et al., 1999) by applying a solution of DNFB (0.5% in acetone:olive oil (4:1, v/v); 30 microliters,) onto a 2 cm^2 shaved area of the abdomen. After 7 days, the animals were anesthetised with diethyl ether and 8 microliters of DNFB (0.35% in acetone:olive oil (4:1, v/v) was applied to the dorsal and ventral surfaces of the right pinna. Prior to regaining consciousness, the mice were implanted intraperitoneally with Alzet 2001 mini-osmotic pumps (Alza Corp., Palo Alto Calif., USA) containing phosphoric acid mono-[6-(3-hexyloxy-propyl)-3,4,5-trihydroxy-tetrahydro-pyran-2-ylmethyl] ester, sodium salt in normal saline. The dose delivered was 50 mg/kg/day. Control animals for this group received saline delivered in identical mini-osmotic pumps. A second experimental group of mice received phosphoric acid mono-[3-(3,4,5-trihydroxy-6-phosphonooxymethyl-tetrahydro-pyran-2-yl)-propyl] ester disodium salt via one-week delivery Alzet 2001 mini-osmotic pumps implanted intraperitoneally. This compound was delivered at a dose of 40 mg/kg/day. Control animals for this group received saline delivered in identical mini-osmotic pumps. In a third experiment a separate group of mice received (3,4,5-trihydroxy-6-phosphonooxymethyl-tetrahydro-pyran-2-yl)-acetic acid disodium salt via one-week delivery Alzet 2001 mini-osmotic pumps that were placed intraperitoneally. This compound was delivered at 45 mg/kg/day. The control group for this experiment received identical mini-osmotic pumps containing normal saline. In a fourth experiment a group of mice received 3-phenyl-2-[2-(3,4,5-trihydroxy-6-phosphonooxymethyl-tetrahydro-pyran-2-yl)-acetylamino]-propionic acid monosodium salt via one-week delivery Alzet 2001 mini-osmotic pumps that were placed subcutaneously. This compound was delivered at 62 mg/kg/day. The control group for this experiment received identical mini-osmotic pumps containing normal saline. In a fifth experiment a group of mice received hexanoic acid 3-(3,4,5-trihydroxy-6-phosphonooxymethyl-tetrahydro-pyran-2-yl)-propyl ester sodium salt via one-week delivery Alzet 2001 mini-osmotic pumps that were placed subcutaneously. This compound was delivered at 40 mg/kg/day. The control group for this experiment received identical mini-osmotic pumps containing normal saline.
Twenty-four hours after challenge the mice were lightly anesthetised with diethyl ether and the thickness of the left and right pinnae measured (in millimeters) using a dial gauge micrometer (Interapid, Switzerland). Care was taken to measure only the outer two thirds of the ear. The increase in ear thickness initiated by the DTH response was determined by subtracting the measurement of the left ear (untreated) from the right ear (challenged).
In Table 4, values in the columns labeled Left and Right are measurements of ear thickness in millimeters of the control and challenged ears respectively.

[3] = system: passively transferred EAE; assay: Passively transferred EAE induced with concanavalin A stimulated spleen lymphoblasts (Example 24); format: in vivo, Lewis rats; set-up: key to Clinical score - Treated, Mean: 0 = asymptomatic to 5 = hind limb paralysis; settings: 62 mg/kg/day subcutaneously; for Clinical score - Treated, Mean: group mean; for Clinical score - Treated: individual rats, scale 0 to 5
Experimental: In a similar type of experiment outlined in Example 20, and in order to study the effect of the agents of the present invention in vivo on a disease caused by T lymphocyte migration into a specific tissue, further experiments were performed in a Lewis rat model of passively transferred EAE. Here, myelin basic protein (MBP)-specific T lymphocytes were generated in spleens of Lewis rats that had been immunised with guinea pig MBP in Freund's complete adjuvant. Thus, in this manner donor T lymphocytes were generated from male 12-20 week old Lewis rats weighing 200 to 250 g. These rats were injected intradermally in a footpad of each hind foot with an emulsion of guinea pig myelin basic protein (MBP; prepared according to the method of Deibler et al., 1972; incorporated herein by reference) in Freund's complete adjuvant (0.1 ml). The adjuvant emulsion was prepared by emulsifying equal volumes of a mixture of 85% light mineral oil (0.8417 g/mL (Sigma)) plus 15% mannide monooleate (Sigma) containing Mycobacterium butyricum (4 mg/ml; Difco) and normal saline containing guinea pig myelin basic protein (0.25 mg/ml). Thus, the total dose per rat was 25 micrograms of MBP and 400 micrograms of M. butyricum. Ten days following injection, the rats were euthanased and the spleens removed aseptically by blunt dissection and placed into mixed lymphocyte culture medium. This medium was prepared in the normal fashion from Dulbecco's Modified Eagle's Medium (DMEM; GIBCO, Grand Island, N.Y.) supplemented with glucose (4 g/L), folic acid (6 mg/L), L-asparagine (36 mg/L), sodium bicarbonate (2 g/L), L-arginine (116 mg/L), L-glutamine (2 mM), sodium pyruvate (1 mM), HEPES (10 mM), 2-mercaptoethanol (5×10^−5 M), penicillin, streptomycin, neomycin, and 10% fetal calf serum. A single cell suspension was prepared from the spleens in the usual manner by gently pushing them through a stainless steel screen. The cells were washed twice and cultured asceptically for 72 hours at 37° C. in a humidified atmosphere containing 5% carbon dioxide at a concentration of 2 million cells per milliliter in the presence of concanavalin A (2 microgram/mL). The cells were collected and washed twice in Hanks balanced salt solution. Cells were resuspended in Hanks balanced salt solution and each recipient animal (10-12 weeks old female Lewis rats; 160-180 g) received 40-42.5 million lymphoblasts by lateral tail vein injection in a volume of 0.5 ml.
In a typical experiment 4-5 recipient rats were anesthetised with diethyl ether and implanted with mini-osmotic pumps (Alzet 2001, Alza Corp., Palo Alto Calif., USA) containing the test compound. A second group of 4 animals, the control group, under ether anesthesia, were implanted with Alzet 2001 pumps containing normal saline. Mini-osmotic pumps were implanted three days after cell transfer. Disease severity (clinical score) was scored on an arbitrary scale of severity ranging from 0 to 5 as follows: 0, asymptomatic; 1, flaccid distal half of tail; 2, entire tail flaccid; 3, ataxia, difficulty in righting reflex; 4, hind limb weakness; 5, hind limb paralysis. Mean maximum clinical scores were calculated and the disease index (DI) for each group was calculated as described in Example 20. The results of these experiments are outlined in Tables 6, 7 and 8.

CCCC1OC(COP(=O)([O-])O)C(O)C(O)C1O.[Na+] (centres unmarked) [phosphoric acid mono-(6-propyl-3,4,5-trihydroxy-tetrahydro-pyran-2-ylmethyl) ester mono sodium salt]
drug-treated animals that developed disease ([1]; 45 mg/kg/rat/day, control group 5/5): 3/5
lesions per section in the most affected animal ([1]; day 6 post lymphocyte transfer, histology): no more than 8 lesions per section
average lesions (per section) in spinal cord ([1]; day 6 post lymphocyte transfer, histology, control approximately 15 lesions/section): 3.5 lesions
Mean maximum clinical score ([1]; treated group, 45 mg/kg/rat/day, control group 2.0): 1.0
disease index (DI) ([1]; treated group, 45 mg/kg/rat/day, control group DI 160): 40

O=C(CC1OC(COP(=O)(O)O)C(O)C(O)C1O)NC(Cc1ccccc1)C(=O)[O-].[Na+] (centres unmarked) [3-phenyl-2-[2-(3,4,5-trihydroxy-6-phosphonooxymethyl-tetrahydro-pyran-2-yl)-acetylamino]-propionic acid monosodium salt]
Mean percentage decrease in ear swelling in treated animals ([2]; 62 mg/kg/day subcutaneously, versus saline controls): Mean percentage decrease in ear swelling in treated animals: 49.3%
Mean Difference, Treated ([2]; group mean, 62 mg/kg/day subcutaneously, saline control mean 0.134): 0.068 millimeters
Difference (right minus left ear), Treated ([2]; individual mice, 62 mg/kg/day, mini-osmotic pump subcutaneously, 24 hours after challenge, monosodium salt): 0.11 millimeters and 0.09 millimeters and 0.06 millimeters and 0.04 millimeters (2×)
Right ear thickness, Treated ([2]; individual mice, challenged ear, 62 mg/kg/day, mini-osmotic pump subcutaneously, 24 hours after challenge, monosodium salt): 0.33 millimeters and 0.31 millimeters and 0.29 millimeters and 0.25 millimeters (2×)
Left ear thickness, Treated ([2]; individual mice, control (unchallenged) ear, 62 mg/kg/day, mini-osmotic pump subcutaneously, 24 hours after challenge, monosodium salt): 0.22 millimeters (2×) and 0.23 millimeters and 0.21 millimeters (2×)
Clinical score - Treated, Mean ([3]; day 4): 0
Clinical score - Treated ([3]; day 4): 0
Clinical score - Treated, Mean ([3]; day 5): 0.8
Clinical score - Treated ([3]; day 5, monosodium salt, 62 mg/kg/day): 0 (2×) and 1 (2×) and 2
Clinical score - Treated, Mean ([3]; day 6): 0.9
Clinical score - Treated ([3]; day 6, monosodium salt, 62 mg/kg/day): 0 and 0.5 and 1 (2×) and 2
Clinical score - Treated, Mean ([3]; day 7): 0.7
Clinical score - Treated ([3]; day 7, monosodium salt, 62 mg/kg/day): 0 (2×) and 0.5 and 1 and 2
Clinical score - Treated, Mean ([3]; day 8): 0.7
Clinical score - Treated ([3]; day 8, monosodium salt, 62 mg/kg/day): 0 (2×) and 1 (2×) and 1.5
Clinical score - Treated, Mean ([3]; day 9): 0.4
Clinical score - Treated ([3]; day 9, monosodium salt, 62 mg/kg/day): 0 (3×) and 0.5 and 1
Clinical score - Treated, Mean ([3]; day 10): 0.2
Clinical score - Treated ([3]; day 10, monosodium salt, 62 mg/kg/day): 0 (3×) and 0.5 (2×)
Mean maximum clinical score ([3]; treated group, control 1.5): clinical score 1.0
DI (disease index) ([3]; treated group, control DI 14.1): DI - 8.13 Mean maximum
